pIC50: −log10 of the molar value. Activity calls are given as the source filed them. The rule behind the calls is not given here.
What was measured:
[1] = target: Sucrase-isomaltase, intestinal (Rattus norvegicus) (UniProt P23739); conditions: Caco-2, 21 uM
Description: Inhibition of rat intestinal sucrase expressed in human Caco-2 cells at 21 uM

[2] = target: T1, Sucrase-isomaltase, intestinal (Homo sapiens, UniProt P14410); test: Inhibition of human intestinal sucrase in human Caco-2 cell membrane at 25 uM
Target sequence in this assay (P14410 2-1007 limits assumed): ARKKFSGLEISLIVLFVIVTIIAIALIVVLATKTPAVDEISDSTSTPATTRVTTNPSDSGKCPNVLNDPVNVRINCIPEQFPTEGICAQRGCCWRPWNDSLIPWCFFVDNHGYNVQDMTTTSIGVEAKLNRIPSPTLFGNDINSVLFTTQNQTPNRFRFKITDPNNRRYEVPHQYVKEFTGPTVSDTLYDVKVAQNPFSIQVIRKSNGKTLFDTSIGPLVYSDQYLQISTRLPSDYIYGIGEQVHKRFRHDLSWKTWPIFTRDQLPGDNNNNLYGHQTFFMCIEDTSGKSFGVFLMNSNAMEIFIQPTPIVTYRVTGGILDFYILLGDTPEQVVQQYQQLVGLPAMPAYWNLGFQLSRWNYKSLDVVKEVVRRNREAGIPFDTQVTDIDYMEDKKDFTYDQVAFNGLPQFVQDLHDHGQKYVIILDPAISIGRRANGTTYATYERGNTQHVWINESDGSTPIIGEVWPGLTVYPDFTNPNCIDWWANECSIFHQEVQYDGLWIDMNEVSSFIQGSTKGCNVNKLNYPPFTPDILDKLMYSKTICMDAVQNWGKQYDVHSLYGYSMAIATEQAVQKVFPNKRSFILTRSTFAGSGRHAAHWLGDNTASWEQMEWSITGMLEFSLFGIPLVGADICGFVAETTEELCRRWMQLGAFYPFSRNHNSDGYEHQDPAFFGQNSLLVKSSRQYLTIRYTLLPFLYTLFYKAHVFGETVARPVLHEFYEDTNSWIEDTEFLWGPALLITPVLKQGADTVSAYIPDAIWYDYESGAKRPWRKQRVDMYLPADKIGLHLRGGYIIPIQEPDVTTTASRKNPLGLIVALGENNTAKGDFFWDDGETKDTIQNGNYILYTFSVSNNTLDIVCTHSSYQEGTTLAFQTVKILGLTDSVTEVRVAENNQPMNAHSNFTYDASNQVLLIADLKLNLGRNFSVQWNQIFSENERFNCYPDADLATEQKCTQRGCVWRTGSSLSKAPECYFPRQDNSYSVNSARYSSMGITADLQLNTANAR
Target sequence in this assay (P14410 1008-1827 limits assumed): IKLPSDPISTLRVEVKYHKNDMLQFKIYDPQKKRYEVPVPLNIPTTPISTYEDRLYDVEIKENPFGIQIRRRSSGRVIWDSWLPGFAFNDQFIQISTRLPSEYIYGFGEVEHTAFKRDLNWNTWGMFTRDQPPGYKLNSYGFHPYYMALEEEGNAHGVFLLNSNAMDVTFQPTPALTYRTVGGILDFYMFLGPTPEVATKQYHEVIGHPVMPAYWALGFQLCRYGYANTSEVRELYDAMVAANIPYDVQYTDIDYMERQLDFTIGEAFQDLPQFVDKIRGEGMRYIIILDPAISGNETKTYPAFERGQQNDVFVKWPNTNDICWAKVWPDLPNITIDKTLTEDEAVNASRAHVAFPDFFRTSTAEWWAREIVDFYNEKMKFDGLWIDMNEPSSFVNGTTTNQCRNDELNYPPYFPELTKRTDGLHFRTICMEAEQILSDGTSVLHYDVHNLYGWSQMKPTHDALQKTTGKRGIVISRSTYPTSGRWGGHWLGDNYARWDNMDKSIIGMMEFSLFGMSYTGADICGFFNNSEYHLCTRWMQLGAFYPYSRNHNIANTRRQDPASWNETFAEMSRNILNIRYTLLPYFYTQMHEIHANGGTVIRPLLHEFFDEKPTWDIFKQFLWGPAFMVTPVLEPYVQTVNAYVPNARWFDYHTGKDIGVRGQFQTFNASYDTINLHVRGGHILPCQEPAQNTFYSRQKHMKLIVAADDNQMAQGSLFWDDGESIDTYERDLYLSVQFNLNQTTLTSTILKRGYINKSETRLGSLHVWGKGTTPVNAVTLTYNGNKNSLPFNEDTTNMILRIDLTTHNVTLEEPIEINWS

[3] = target: Sucrase-isomaltase, intestinal (Rattus norvegicus, UniProt P23739); test: Inhibition of rat intestinal sucrase
[4] = target: T1, Sucrase-isomaltase, intestinal; test: Inhibition of human intestinal sucrase in human Caco-2 cell membrane; assay type: cell-based
Target sequence in this assay (P14410 2-1007 limits assumed): as the sequence (P14410 2-1007 limits assumed) above
Target sequence in this assay (P14410 1008-1827 limits assumed): as the sequence (P14410 1008-1827 limits assumed) above

[5] = target: T1, Sucrase-isomaltase, intestinal; test: Inhibition of human intestinal sucrase
Target sequence in this assay (P14410 whole entry, looked up): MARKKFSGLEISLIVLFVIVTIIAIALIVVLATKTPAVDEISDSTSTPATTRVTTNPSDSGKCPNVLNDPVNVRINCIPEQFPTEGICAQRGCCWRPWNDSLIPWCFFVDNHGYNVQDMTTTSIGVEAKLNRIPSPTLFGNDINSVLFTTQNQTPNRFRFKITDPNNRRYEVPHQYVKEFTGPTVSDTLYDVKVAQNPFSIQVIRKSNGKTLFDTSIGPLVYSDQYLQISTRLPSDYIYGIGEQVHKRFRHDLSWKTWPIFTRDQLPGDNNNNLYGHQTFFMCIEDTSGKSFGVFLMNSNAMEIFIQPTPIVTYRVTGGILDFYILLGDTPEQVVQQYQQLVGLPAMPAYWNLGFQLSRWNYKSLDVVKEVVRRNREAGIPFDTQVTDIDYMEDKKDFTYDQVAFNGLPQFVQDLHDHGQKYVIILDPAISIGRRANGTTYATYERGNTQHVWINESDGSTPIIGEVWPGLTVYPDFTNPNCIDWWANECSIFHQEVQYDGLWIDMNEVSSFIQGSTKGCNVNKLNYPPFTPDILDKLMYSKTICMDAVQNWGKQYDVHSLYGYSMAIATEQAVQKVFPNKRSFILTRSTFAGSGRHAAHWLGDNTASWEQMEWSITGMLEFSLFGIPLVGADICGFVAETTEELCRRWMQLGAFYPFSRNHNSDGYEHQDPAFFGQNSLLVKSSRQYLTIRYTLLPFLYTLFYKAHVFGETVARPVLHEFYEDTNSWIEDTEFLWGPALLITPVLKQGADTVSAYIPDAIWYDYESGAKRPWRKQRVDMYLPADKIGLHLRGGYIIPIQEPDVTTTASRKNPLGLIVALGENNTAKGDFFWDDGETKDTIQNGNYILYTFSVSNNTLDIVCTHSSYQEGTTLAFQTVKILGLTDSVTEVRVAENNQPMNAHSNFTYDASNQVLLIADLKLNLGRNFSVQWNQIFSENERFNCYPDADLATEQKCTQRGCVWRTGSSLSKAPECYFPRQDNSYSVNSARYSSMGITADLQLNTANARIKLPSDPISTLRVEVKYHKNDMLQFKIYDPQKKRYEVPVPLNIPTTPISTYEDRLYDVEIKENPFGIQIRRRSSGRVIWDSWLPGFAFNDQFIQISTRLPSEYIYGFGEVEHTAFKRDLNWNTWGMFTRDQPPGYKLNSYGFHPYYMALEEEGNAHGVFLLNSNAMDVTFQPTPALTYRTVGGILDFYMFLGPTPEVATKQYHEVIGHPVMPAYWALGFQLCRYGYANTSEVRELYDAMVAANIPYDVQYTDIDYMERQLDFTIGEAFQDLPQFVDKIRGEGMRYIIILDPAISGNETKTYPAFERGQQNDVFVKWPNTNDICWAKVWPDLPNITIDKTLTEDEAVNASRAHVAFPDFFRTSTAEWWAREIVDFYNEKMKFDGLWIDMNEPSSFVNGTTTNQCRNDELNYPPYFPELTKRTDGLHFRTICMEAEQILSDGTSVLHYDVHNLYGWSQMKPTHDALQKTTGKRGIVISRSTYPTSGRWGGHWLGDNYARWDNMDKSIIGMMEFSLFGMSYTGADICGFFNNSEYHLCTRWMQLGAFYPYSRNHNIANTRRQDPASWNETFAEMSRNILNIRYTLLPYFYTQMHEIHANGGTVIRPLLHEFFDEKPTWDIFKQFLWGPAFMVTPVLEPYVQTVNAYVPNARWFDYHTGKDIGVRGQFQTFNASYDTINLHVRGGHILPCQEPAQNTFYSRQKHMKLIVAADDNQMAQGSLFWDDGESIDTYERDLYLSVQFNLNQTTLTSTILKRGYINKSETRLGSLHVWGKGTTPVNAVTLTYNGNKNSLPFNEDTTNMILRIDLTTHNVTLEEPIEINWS

Row | SMILES | inhibition [1] | inhibition [2] | pIC50 [3] | pIC50 [4] | Activity [5]
1 | OC[C@H]1NC[C@H](O)[C@@H](O)[C@@H]1O | 100% | 95% |  |  | 
2 | O=c1cc(-c2ccccc2)oc2cc(O)c(O)c(O)c12 [BAICALEIN] |  |  | 3.59 | 4.46 | Active

Reference: ChEMBL document CHEMBL1151315, “Baicalein, an alpha-glucosidase inhibitor from Scutellaria baicalensis” (J Nat Prod, 1998)
